Here are results for two compounds from patent publication US20060167229A1, “Biologically active peptide conjugates” (priority 2002, published 2006).

Entries after “also recorded” stand apart in the source; their conditions may differ. Marks after values point to notes of the source that are not given here.

In test [1] the test system is S180 sarcoma. The test can be described thus: Growth of transplanted S180 sarcoma. In kind it is in vivo, BALB/c mice. The conditions noted are these: controls: IL-2, IFN-γ 3 × 10^5 IU/kg, cyclophosphamide 20 mg/kg; saline 1.29 ± 0.50. On the procedure: (§1) Intraperitoneal injection, once per day. […] Treatment of all groups with testing substance lasted for 30 days or until the animal died unless otherwise specified.
Stock S180 sarcoma cells were incubated in DMEM/F12 medium supplemented with 10% fetal bovine serum, 37° C., 5% CO2 for 72 hrs, then washed 3-4 times with Hank's solution at room temperature. Adjust the cell concentration to 1-2×10^9 per litre with Hank's solution. […] The mice were killed by cervical vertebra dislocation. Vigorously growing and non-disrupted tumor masses were harvested and washed clean with sterile saline. The tissue was dispersed in saline to a homogenous cell suspension, in a ratio of 1 g tissue to 4 ml saline. The sarcoma bearing mice model was prepared with an injection of 0.2 ml cell suspension through the armpit. Administration of test substance treatment started as described in section Method 1.
2.2 The Tumor Growth Inhibition Index was Calculated According to the Following Formula: Tumor growth inhibition index=(mean tumor weight of control group−mean tumor weight of treatment group)÷mean tumor weight of control group 3.

Test [2] has as its system L1210 leukemia. The test can be described thus: Survival of mice with transplanted L1210 leukemia. The test is classed as in vivo, DBA/2 mice. The conditions noted are these: controls: IL-2, IFN-γ 3 × 10^5 IU/kg, cyclophosphamide 20 mg/kg; saline 16.6 ± 5.6. On the procedure: as §1
Stock L1210 cells were incubated in DMEM/F12 medium supplemented with 10% fetal bovine serum, 37° C./5% CO2 for 72 hrs, then washed 3-4 times with Hank's solution, and adjusted to […]. 0.1 ml of the cell suspension was implanted into the abdominal cavity of several healthy DBA mice for 6-8 days. The mice were then killed by cervical vertebra dislocation and their ascitic fluid collected aseptically. The cell concentration of the collected ascitic fluid was adjusted to 1×10^5 per ml with Hank's solution. 0.1 ml of the cell suspension was implanted into each of the testing animal and the survival data of the animals recorded. Treatment started in the testing animals as described in section Method 1. Mean survival day was obtained by the Kaplan-meier method in the Survival option of the SPSS software. If the animal survived longer than the experiment, the survival days was entered as the duration of the experiment. The survival index was calculated according to the following formula: Survival index=(mean survival days of treatment group−mean survival days of control group)÷mean survival days of control group 6. The Effect of Peptides on the Humoral Immunity of C57BL/6 Mice Bearing Transplanted B16 Melanoma and that on the Metastatic Potential of the Inoculated Melanoma Cells

The subject of test [3] is anti-SRBC antibody. The test can be described thus: Sheep Red Blood Cell (SRBC) hemolysis test, antibody formation. In kind it is in vivo, BALB/c mice. The conditions noted are these: for anti-SRBC antibody formation, X ± SD (Unit): healthy mice, SRBC day 12 (IFN-γ, IL-2 3×10^5 IU/kg/day), saline 32 ± 7. In short, it runs like this: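 Mice immunized intraperitoneally with 0.2 ml SRBC on day 12; serum taken on day 16, diluted 500-fold. Serum incubated with 2% SRBC and guinea pig complement 10 min at 37° C; released haemoglobin read at OD540 with Drabkin solution. Serum index = (sample OD540 ÷ reference OD540) × 500.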

Test [4] relates to mononuclear phagocyte. As to the kind of experiment: Carbon particle clearance test, phagocytosis function. On the set-up: key to X ± SD (phagocytotic index): α = cube root of K × (body weight ÷ liver+spleen weight). In kind it is in vivo, BALB/c mice. The protocol: On the next day after the last test substance administration (day 16), the mice were injected with […] body weight India ink (5 times dilution with normal saline) from the tail vein.
One minute and five minutes after Indian ink injection, 20 μl blood was obtained from the eye canthus with a heparinized tubing. The blood was mixed with 2 ml 0.1% w/v Na2CO3 and then OD680 nm obtained. The outline clear index K was calculated by the following formula: K=(lgA1−lgA2)÷(t2−t1)
(§2) One day after the last test substance administration (day 16), the liver, spleen, and thymus gland were separated and blotted dry with filter paper and weighed. The phagocytosis index α was calculated as below: α=(^3√{square root over ( )}K)(W÷WLS)

In test [5] the test system is NK cell. The test can be described thus: NK cell cytotoxicity activity test (spleen cells of treated mice against YAC-1 target cells, MTT). The test is classed as in vivo, BALB/c mice. In short, it runs like this: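 Mice (10 per group) dosed i.p. once daily for 15 days in saline; spleen cells harvested the next day. Splenocytes (4×10^6/ml) co-cultured with YAC-1 targets (1×10^5/ml), in triplicate per mouse. Viability by MTT (1 mg/ml, 4 h, 37 °C), read at OD570 against 630 nm.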

In test [6] the test system is thymus gland. As to the kind of experiment: Immunity organ weight test, thymus gland index. In kind it is in vivo, BALB/c mice. The conditions noted are these: for weight of thymus gland (thymus gland index), X ± SD (%): healthy mice, saline 0.12 ± 0.02. The protocol:
as §2
Thymus gland index (%)=(thymus weight/body weight)×100%

For test [7], the system named is spleen. As to the kind of experiment: Immunity organ weight test, spleen index. The test is classed as in vivo, BALB/c mice. The protocol: as §2
Spleen index (%)=(spleen weight/body weight)×100%

Test [8] relates to Masugi nephritis rat model. As to the kind of experiment: Masugi nephritis rat model. The conditions noted are these: for urine protein level: 24 h urine.
[9] abbreviates: statistically significant difference from saline in any of the dosage groups 0.5-500 μg/kg/day.

As to `O=P1(N(CCCl)CCCl)NCCCO1` (centres unmarked) [Cyclophosphamide, reference compound], in test [1], the “Tumor weight” value is 0.68 ± 0.32 g. Also, the Survival days in test [2] turned out to be 24.0 ± 5.3 days.
Consider “Phe Gln Gln Met (FQQM; printed: Phe Gln Gln Met) [CMS030]”, for which the “anti-SRBC antibody formation, X ± SD (Unit)” value was 19 ± 7 Unit in test [3] (peptide 0.5 μg/kg/day i.p. 15 days), 158 ± 37*^@^ Unit in test [3] (peptide 5 μg/kg/day i.p. 15 days) and 141 ± 33*^@^ Unit in test [3] (peptide 50 μg/kg/day i.p. 15 days). For the same compound, in test [3] (setting [9]), the “effect on the synthesis of anti-SRBC antibody upon the antigenic challenge (summary)” value is recorded as “enhance; also recorded: inhibit”. For the same compound, the “X ± SD (phagocytotic index)” value in test [4] (healthy mice, peptide 50 μg/kg/day i.p. 15 days (IFN-γ, IL-2 3×10^5 IU/kg/day), saline 5.1 ± 0.6) was determined as 6.3 ± 0.5. Moreover, the “effect on the phagocytotic activity of mononuclear phagocyte (summary)” value in test [4] (setting [9]) was “enhance”. Also, the “NK cell cytotoxic activity, X ± SD (%)” value in test [5] (healthy mice, peptide 500 μg/kg/day i.p. 15 days (IFN-γ, IL-2 3×10^5 IU/kg/day), saline 63 ± 9) is recorded as 91 ± 5*^@^ %. The “effect on the cytotoxic activity of NK cells (summary)” value in test [5] (setting [9]) is reported as “increase”. Also, the “weight of thymus gland (thymus gland index), X ± SD (%)” value in test [6] (peptide 0.5 μg/kg/day i.p. 15 days (IFN-γ, IL-2 3×10^5 IU/kg/day)) is on record as 0.24 ± 0.05*^@^ %; in test [6] (peptide 5 μg/kg/day i.p. 15 days (IFN-γ, IL-2 3×10^5 IU/kg/day)), 0.23 ± 0.07*^ %; in test [6] (peptide 50 μg/kg/day i.p. 15 days (IFN-γ, IL-2 3×10^5 IU/kg/day)), 0.25 ± 0.04*^@^ %; in test [6] (peptide 500 μg/kg/day i.p. 15 days (IFN-γ, IL-2 3×10^5 IU/kg/day)), 0.30 ± 0.03*^@^ %. In test [6] (setting [9]), the “effect on the weight of the thymus gland (summary)” value is given as “increase”. Further, the “weight of spleen (spleen index), X ± SD (%)” value in test [7] (Table 30, healthy mice, peptide 5 μg/kg/day i.p. 15 days, saline 0.53 ± 0.05) worked out at 0.64 ± 0.09 %. The “effect on the weight of the spleen (summary)” value in test [7] (setting [9]) is on record as “increase”. Further, the urine protein level in test [8] (Week 1, peptides 50 μg/kg/day, hydrocortisone 3.3 mg/kg/day i.p., placebo 22.9 ± 22, normal 1.7 ± 1.3) was determined as 5.4 ± 3.4 mg; in test [8] (Week 2, peptides 50 μg/kg/day i.p., hydrocortisone dose halved after first week, placebo 17.2 ± 14.5, normal 2.3 ± 1.1) it was 9.5 ± 16.2 mg; in test [8] (Week 3, peptides 50 μg/kg/day i.p., hydrocortisone dose halved after first week, placebo 20.2 ± 29.0, normal 0.4 ± 0.2) it was 2.4 ± 1.5 mg. In addition, in test [8] (after three weeks of treatment, peptides 50 μg/kg/day i.p., placebo 4.8 ± 1.1, normal 2.4 ± 0.1), the spleen index was 3.0 ± 0.5 ×10^−3. In test [8] (after three weeks of treatment, peptides 50 μg/kg/day i.p., placebo 265 ± 212, normal 80 ± 1), this compound returned a Serum creatinine level of 93 ± 1 µmol/L. Also, the “renal pathological microscopic examination” value in test [8] (peptides 50 μg/kg/day i.p. 3 weeks, 6 heaviest kidneys per group) is “all pathological parameters of all rats were normal”.
